Experimental data from patent publication US20240287076A1, “COMPOUNDS FOR TARGETING DEGRADATION OF BRUTON'S TYROSINE KINASE” (BIOGEN MA INC., priority 2021, published 2024).

biological target: T1, BTK (Homo sapiens, UniProt Q06187); assay: BTK degradation assay using the HiBiT Method (Nano-Glo HiBiT Lytic Assay, GM01501.3 cells); type: cell-based; details: HiBiT Degradation on GM01501.3 BTK @ 6 hours
T1 construct: The GM01501.3 cell line endogenously expresses BTK with a HiBiT fusion tag via CRISPR knock-in at its C-terminal region; endogenous in cells; host or cells: GM01501.3 (GM01501 cells engineered by CRISPR knock-in of HiBiT at the BTK locus)
Outline: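 Degradation read-out: HiBiT luminescence after lytic reagent addition, giving DC50. Compounds dosed from 10 μM in 11 half-log steps (duplicate) onto GM01501.3 cells, whose endogenous BTK carries a C-terminal HiBiT knock-in tag; 6 h exposure, 37 °C, 5% CO2.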

T1 sequence (Q06187 whole entry, the tested form may be a part): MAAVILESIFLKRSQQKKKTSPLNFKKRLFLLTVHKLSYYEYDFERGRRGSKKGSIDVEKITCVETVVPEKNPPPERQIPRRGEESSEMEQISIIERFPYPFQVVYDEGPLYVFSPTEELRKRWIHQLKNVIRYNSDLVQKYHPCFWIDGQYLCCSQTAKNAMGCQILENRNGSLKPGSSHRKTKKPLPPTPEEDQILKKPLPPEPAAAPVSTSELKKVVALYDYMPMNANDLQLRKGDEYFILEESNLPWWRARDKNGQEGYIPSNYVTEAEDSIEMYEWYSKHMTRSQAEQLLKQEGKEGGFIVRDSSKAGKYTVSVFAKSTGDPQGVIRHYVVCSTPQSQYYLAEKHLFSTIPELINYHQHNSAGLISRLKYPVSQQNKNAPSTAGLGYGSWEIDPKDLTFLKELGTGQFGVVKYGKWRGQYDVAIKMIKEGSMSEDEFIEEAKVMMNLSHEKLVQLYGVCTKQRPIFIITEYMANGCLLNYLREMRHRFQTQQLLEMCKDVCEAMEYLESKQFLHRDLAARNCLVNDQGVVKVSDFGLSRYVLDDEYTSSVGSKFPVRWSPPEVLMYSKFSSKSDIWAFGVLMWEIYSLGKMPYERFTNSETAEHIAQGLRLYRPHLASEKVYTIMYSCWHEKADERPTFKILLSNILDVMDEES

Structure (SMILES)	DC50
Cc1cc(-c2ncnn3cc(N4CCN(C(=O)C5CCN(C(=O)c6ccc(OC7CCC(=O)NC7=O)cc6)C5)CC4)cc23)ccc1CNC(=O)c1noc(C(C)(C)C)n1 (stereo not drawn) [Example 172, 5-(tert-butyl)-N-(4-(6-(4-(1-(4-((2,6-dioxopiperidin-3-yl)oxy)benzoyl)pyrrolidine-3-carbonyl)piperazin-1-yl)pyrrolo[2,1-f][1,2,4]triazin-4-yl)-2-methylbenzyl)-1,2,4-oxadiazole-3-carboxamide]	100 to 500 nM
Cc1cc(-c2ccnc3nn(CCCCN4CCC(c5ccc(NC6CCC(=O)NC6=O)cc5)CC4)cc23)ccc1CNC(=O)c1noc(C(C)(C)C)n1 (stereo not drawn) [Example 160, 5-tert-butyl-N-[[4-[2-[4-[4-[4-[(2,6-dioxo-3-piperidyl)amino]phenyl]-1-piperidyl]butyl]pyrazolo[3,4-b]pyridin-4-yl]-2-methyl-phenyl]methyl]-1,2,4-oxadiazole-3-carboxamide]	> 1000 nM
Cc1cc(-c2ncnn3cc(-c4ccc(OCCCCN5CCC(c6ccc(NC7CCC(=O)NC7=O)cc6)CC5)cc4)cc23)ccc1CNC(=O)c1nc(C(C)(C)C)ns1 (stereo not drawn) [Example 112, 3-tert-butyl-N-[[4-[6-[4-[4-[4-[4-[(2,6-dioxo-3-piperidyl)amino]phenyl]-1-piperidyl]butoxy]phenyl]pyrrolo[2,1-f][1,2,4]triazin-4-yl]-2-methyl-phenyl]methyl]-1,2,4-thiadiazole-5-carboxamide]	< 100 nM
Cc1cc(-c2ncnn3cc(-c4ccc(N5CCC(c6ccc(C7CCC(=O)NC7=O)cc6)CC5)cc4)cc23)ccc1CNC(=O)c1noc(C(C)(C)C)n1 (stereo not drawn) [Example 146, 5-tert-butyl-N-[[4-[6-[4-[4-[4-(2,6-dioxo-3-piperidyl)phenyl]-1-piperidyl]phenyl]pyrrolo[2,1-f][1,2,4]triazin-4-yl]-2-methyl-phenyl]methyl]-1,2,4-oxadiazole-3-carboxamide]	100 to 500 nM
CN(CCn1ccc(NC2CCC(=O)NC2=O)n1)Cc1ccc(-c2cc3c(-c4ccc(CNC(=O)c5noc(C(C)(C)C)n5)c(F)c4)ncnn3c2)cc1F (stereo not drawn) [Example 34, 5-tert-butyl-N-[[4-[6-[4-[[2-[3-[(2,6-dioxo-3-piperidyl)amino]pyrazol-1-yl]ethyl-methyl-amino]methyl]-3-fluoro-phenyl]pyrrolo[2,1-f][1,2,4]triazin-4-yl]-2-fluoro-phenyl]methyl]-1,2,4-oxadiazole-3-carboxamide]	< 100 nM
Cn1nc(N2CCC(=O)NC2=O)c2ccc(C3CCN(Cc4ccc(-c5cc6c(-c7ccc(CNC(=O)c8noc(C(C)(C)C)n8)c(F)c7)ncnn6c5)c(F)c4)CC3)cc21 [Example 242, 5-(tert-butyl)-N-(4-(6-(4-((4-(3-(2,4-dioxotetrahydropyrimidin-1(2H)-yl)-1-methyl-1H-indazol-6-yl)piperidin-1-yl)methyl)-2-fluorophenyl)pyrrolo[2,1-f][1,2,4]triazin-4-yl)-2-fluorobenzyl)-1,2,4-oxadiazole-3-carboxamide]	< 100 nM
Cc1cc(-c2ncnn3cc(-c4ccc(CN5CCC(c6ccc(NC7CCC(=O)NC7=O)cc6)CC5)cc4)cc23)ccc1CNC(=O)c1cnc(C(C)(C)C)o1 (stereo not drawn) [Example 85, 2-tert-butyl-N-[[4-[6-[4-[[4-[4-[(2,6-dioxo-3-piperidyl)amino]phenyl]-1-piperidyl]methyl]phenyl]pyrrolo[2,1-f][1,2,4]triazin-4-yl]-2-methyl-phenyl]methyl]oxazole-5-carboxamide]	< 100 nM
Cc1cc(-c2ncnn3cc(-c4ccc(CN5CCC(c6cnc(NC7CCC(=O)NC7=O)nc6)CC5)cc4)cc23)ccc1CNC(=O)c1noc(C(C)(C)C)n1 (stereo not drawn) [Example 30, 5-tert-butyl-N-[[4-[6-[4-[[4-[2-[(2,6-dioxo-3-piperidyl)amino]pyrimidin-5-yl]-1-piperidyl]methyl]phenyl]pyrrolo[2,1-f][1,2,4]triazin-4-yl]-2-methyl-phenyl]methyl]-1,2,4-oxadiazole-3-carboxamide]	< 100 nM
COc1ccc(C(=O)NCc2ccc(-c3ncnn4cc(-c5ccc(CN6CCC(c7ccc(NC8CCC(=O)NC8=O)cc7)CC6)cc5)cc34)cc2C)cc1 (stereo not drawn) [Example 66, N-[[4-[6-[4-[[4-[4-[(2,6-dioxo-3-piperidyl)amino]phenyl]-1-piperidyl]methyl]phenyl]pyrrolo[2,1-f][1,2,4]triazin-4-yl]-2-methyl-phenyl]methyl]-4-methoxy-benzamide]	< 100 nM

Other lines, results leading:

DC50	Structure (SMILES)
< 100 nM	Cc1cc(-c2ncnn3cc(-c4ccc(CN5CCC(c6ccc(NC7CCC(=O)NC7=O)cc6)CC5)cc4)cc23)ccc1CNC(=O)C12CC(C(C)(C)C)(C1)C2 (stereo not drawn) [Example 75, 3-tert-butyl-N-[[4-[6-[4-[[4-[4-[(2,6-dioxo-3-piperidyl)amino]phenyl]-1-piperidyl]methyl]phenyl]pyrrolo[2,1-f][1,2,4]triazin-4-yl]-2-methyl-phenyl]methyl]bicyclo[1.1.1]pentane-1-carboxamide]
< 100 nM	Cc1cc(-c2ncnn3cc(CCN4CCC(c5ccc6c(N7CCC(=O)NC7=O)nn(C)c6c5)CC4)cc23)ccc1CNC(=O)c1cnn(C(C)(C)C)c1 [Example 258, 1-(tert-butyl)-N-(4-(6-(2-(4-(3-(2,4-dioxotetrahydropyrimidin-1(2H)-yl)-1-methyl-1H-indazol-6-yl)piperidin-1-yl)ethyl)pyrrolo[2,1-f][1,2,4]triazin-4-yl)-2-methylbenzyl)-1H-pyrazole-4-carboxamide]
< 100 nM	CC(C)(C)c1nc(C(=O)NCc2ccc(-c3ncnn4cc(-c5ccc(OCCN6CCC(c7ccc(NC8CCC(=O)NC8=O)nc7)CC6)cc5)cc34)cc2F)no1 (stereo not drawn) [Example 110, 5-tert-butyl-N-[[4-[6-[4-[2-[4-[6-[(2,6-dioxo-3-piperidyl)amino]-3-pyridyl]-1-piperidyl]ethoxy]phenyl]pyrrolo[2,1-f][1,2,4]triazin-4-yl]-2-fluoro-phenyl]methyl]-1,2,4-oxadiazole-3-carboxamide]
< 100 nM	Cc1cc(-c2ncnn3cc(CCN4CCC(c5cc6c(cc5F)c(N5CCC(=O)NC5=O)nn6C)CC4)cc23)ccc1CNC(=O)c1noc(C(C)(C)C)n1 [Example 256, 5-(tert-butyl)-N-(4-(6-(2-(4-(3-(2,4-dioxotetrahydropyrimidin-1(2H)-yl)-5-fluoro-1-methyl-1H-indazol-6-yl)piperidin-1-yl)ethyl)pyrrolo[2,1-f][1,2,4]triazin-4-yl)-2-methylbenzyl)-1,2,4-oxadiazole-3-carboxamide]
< 100 nM	Cc1cc(-c2ncnn3cc(CC[C@@H](F)CN4CCN(c5ccc(C6CCC(=O)NC6=O)cn5)CC4)cc23)ccc1CNC(=O)c1noc(C(C)(C)C)n1 (single isomer, unassigned) [Example 287]
< 100 nM	Cc1cc(-c2ncnn3cc(CCN4CCC(c5ccc(NC6CCC(=O)NC6=O)nc5)CC4)cc23)ccc1CNC(=O)c1noc(C(C)(C)C)n1 (stereo not drawn) [Example 250, 5-(tert-butyl)-N-(4-(6-(2-(4-(6-((2,6-dioxopiperidin-3-yl)amino)pyridin-3-yl)piperidin-1-yl)ethyl)pyrrolo[2,1-f] [1,2,4]triazin-4-yl)-2-methylbenzyl)-1,2,4-oxadiazole-3-carboxamide]
< 100 nM	Cc1cc(-c2ncnn3cc(CCCCN4CCN(c5ccc(C6CCC(=O)NC6=O)cn5)CC4)cc23)ccc1CNC(=O)c1noc(C(C)(C)C)n1 (stereo not drawn) [Example 279, 5-(tert-butyl)-N-(4-(6-(4-(4-(5-(2,6-dioxopiperidin-3-yl)pyridin-2-yl)piperazin-1-yl)butyl)pyrrolo[2,1-f][1,2,4]triazin-4-yl)-2-methylbenzyl)-1,2,4-oxadiazole-3-carboxamide]
< 100 nM	Cc1cc(-c2ncnn3cc(N4CCN(C(=O)CCCCCCCCNC(=O)c5ccc(OC6CCC(=O)NC6=O)cc5)CC4)cc23)ccc1CNC(=O)c1noc(C(C)(C)C)n1 (stereo not drawn) [Example 180, 5-(tert-butyl)-N-(4-(6-(4-(9-(4-((2,6-dioxopiperidin-3-yl)oxy)benzamido)nonanoyl)piperazin-1-yl)pyrrolo[2,1-f][1,2,4]triazin-4-yl)-2-methylbenzyl)-1,2,4-oxadiazole-3-carboxamide]
< 100 nM	Cc1cc(-c2ncnn3cc(-c4ccc(CN5CCC(c6ccc(NC7CCC(=O)NC7=O)cc6)CC5)cc4)cc23)ccc1CNC(=O)c1ccc(C(F)F)cc1 (stereo not drawn) [Example 61, 4-(difluoromethyl)-N-[[4-[6-[4-[[4-[4-[(2,6-dioxo-3-piperidyl)amino]phenyl]-1-piperidyl]methyl]phenyl]pyrrolo[2,1-f][1,2,4]triazin-4-yl]-2-methyl-phenyl]methyl]benzamide]
< 100 nM	CC(C)(C)c1nc(C(=O)NCc2ccc(-c3ncnn4cc(CCN5CCC(c6ccc(NC7CCC(=O)NC7=O)cn6)CC5)cc34)cc2F)no1 (stereo not drawn) [Example 122, 5-tert-butyl-N-[[4-[6-[2-[4-[5-[(2,6-dioxo-3-piperidyl)amino]-2-pyridyl]-1-piperidyl]ethyl]pyrrolo[2,1-f][1,2,4]triazin-4-yl]-2-fluoro-phenyl]methyl]-1,2,4-oxadiazole-3-carboxamide]
< 100 nM	Cc1cc(-c2ncnn3cc(-c4ccc(CN5CCC(c6ccc7c(N8CCC(=O)NC8=O)nn(C)c7c6)CC5)cc4F)cc23)ccc1CNC(=O)c1noc(C(C)(C)C)n1 [Example 246, 5-(tert-butyl)-N-(4-(6-(4-((4-(3-(2,4-dioxotetrahydropyrimidin-1(2H)-yl)-1-methyl-1H-indazol-6-yl)piperidin-1-yl)methyl)-2-fluorophenyl)pyrrolo[2,1-f][1,2,4]triazin-4-yl)-2-methylbenzyl)-1,2,4-oxadiazole-3-carboxamide]
< 100 nM	Cc1cc(-c2ncnn3cc(-c4ccc(CN5CCC(c6ccc(NC7CCC(=O)NC7=O)cc6)CC5)cc4)cc23)ccc1CN1CCN(CC(C)(C)C)CC1=O (stereo not drawn) [Example 103, 3-[4-[1-[[4-[4-[4-[[4-(2,2-dimethylpropyl)-2-oxo-piperazin-1-yl]methyl]-3-methyl-phenyl]pyrrolo[2,1-f][1,2,4]triazin-6-yl]phenyl]methyl]-4-piperidyl]anilino]piperidine-2,6-dione]
